Blank lines part the entries; values can stand above or below the molecule they belong to.
Tests used:
MOLM14 (D835Y) cells = experiment: Combination drug screening, 10 x 10 matrix, cell viability (Cell Titer Glo); format: cell-based; conditions: for Sum Excess HSA / Interaction with Compound 96: combination with Compound 96, 10 x 10 dataset; for Sum Excess HSA: 48 hours; for concentration required to reach a similar level of potentiation as Compound 106: 7.8 nM Venetoclax, 10×10 combination, compared with Compound 106; for Interaction with Venetoclax: combination with Venetoclax, 10 x 10 dataset
Procedure: Briefly, 10 nL of compounds were acoustically dispensed into 1536-well white polystyrene tissue culture-treated plates with an Echo 550 acoustic liquid handler (Labcyte). MOLM14 (D835Y) cells were then added to compound-containing plates at a density of 500-cells/well in 5 μL of medium. A 10-point custom concentration range was used for all listed drugs. Plates were incubated for 48 hours at standard incubator conditions covered by a stainless steel gasketed lid to prevent evaporation. 48 h post compound addition, 3 μL of Cell Titer Glo (Promega) were added to each well and plates were incubated at room temperature for 15 minutes with the stainless-steel lid in place. Luminescence readings were taken using a Viewlux imager (PerkinElmer) with a 2 second exposure time per plate.
However, different methodologies may yield different numerical scores, and different definitions of what constitutes a deviation from mere additivity vs true drug synergy.
However, the utility in certain drug combinations vs others should not be distinguished based on cutoffs between HSA scores, because the score itself is only a relative indicator that is completely dependent on experimental design and is not an absolute number. Furthermore, the concept of what constitutes clinically meaningful drug synergy is something that is still being debated, not only between pharmacologists and physicians, but amongst pharmacologists themselves.

IRAK1 = biological target: T1, IRAK1 (Homo sapiens, UniProt P51617); experiment: RBC HotSpot Kinase Assay, IRAK1; format: biochemical
T1 construct: purchased Reaction Biology (RBC HotSpot Kinase Assay)
Outline: (§1)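 Radiometric filter-binding (HotSpot) activity assay on isolated recombinant kinase, possibly truncated or catalytic domain only, in 20 mM Hepes pH 7.5, 10 mM MgCl2, 1 mM EGTA, 2 mM DTT, 1% DMSO. Compound preincubated 20 min with kinase and substrate, then ^33P-ATP added. Reaction 2 h at room temperature, read by P81 filter binding.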

FLT3 = biological target: T2, FLT3 (Homo sapiens, UniProt P36888); experiment: RBC HotSpot Kinase Assay, FLT3; format: biochemical
T2 construct: purchased Reaction Biology (RBC HotSpot Kinase Assay)
T2 sequence (P36888 564-958 limits assumed): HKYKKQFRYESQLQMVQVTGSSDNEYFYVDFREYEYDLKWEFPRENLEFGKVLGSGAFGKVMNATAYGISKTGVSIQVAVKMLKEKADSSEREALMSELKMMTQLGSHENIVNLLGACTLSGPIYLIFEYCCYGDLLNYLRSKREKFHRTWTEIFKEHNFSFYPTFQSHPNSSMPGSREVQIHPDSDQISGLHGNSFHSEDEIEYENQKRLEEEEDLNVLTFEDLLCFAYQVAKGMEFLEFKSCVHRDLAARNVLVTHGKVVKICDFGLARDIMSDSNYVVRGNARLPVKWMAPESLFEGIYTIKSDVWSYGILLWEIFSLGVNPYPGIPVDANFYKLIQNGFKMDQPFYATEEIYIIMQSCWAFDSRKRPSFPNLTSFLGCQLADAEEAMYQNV
Outline: as §1

IRAK4 = biological target: T3, IRAK4 (Homo sapiens, UniProt Q9NWZ3); experiment: RBC HotSpot Kinase Assay, IRAK4; format: biochemical; parameters: purchased Reaction Biology (RBC HotSpot Kinase Assay)
T3 sequence (Q9NWZ3 1-460): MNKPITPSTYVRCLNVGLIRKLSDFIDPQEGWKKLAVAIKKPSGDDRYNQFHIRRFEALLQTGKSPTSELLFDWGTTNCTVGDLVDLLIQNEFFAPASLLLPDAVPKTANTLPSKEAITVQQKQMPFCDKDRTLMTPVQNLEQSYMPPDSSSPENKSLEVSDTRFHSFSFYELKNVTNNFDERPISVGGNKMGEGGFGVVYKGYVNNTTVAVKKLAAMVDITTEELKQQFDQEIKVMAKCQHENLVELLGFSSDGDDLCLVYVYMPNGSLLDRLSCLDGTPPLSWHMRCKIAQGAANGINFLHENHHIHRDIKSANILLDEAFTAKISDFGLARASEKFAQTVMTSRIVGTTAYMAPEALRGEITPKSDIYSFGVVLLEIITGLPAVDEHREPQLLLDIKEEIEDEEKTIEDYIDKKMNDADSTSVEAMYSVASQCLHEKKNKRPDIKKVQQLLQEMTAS
Outline: as §1

T1 sequence (P51617 whole entry): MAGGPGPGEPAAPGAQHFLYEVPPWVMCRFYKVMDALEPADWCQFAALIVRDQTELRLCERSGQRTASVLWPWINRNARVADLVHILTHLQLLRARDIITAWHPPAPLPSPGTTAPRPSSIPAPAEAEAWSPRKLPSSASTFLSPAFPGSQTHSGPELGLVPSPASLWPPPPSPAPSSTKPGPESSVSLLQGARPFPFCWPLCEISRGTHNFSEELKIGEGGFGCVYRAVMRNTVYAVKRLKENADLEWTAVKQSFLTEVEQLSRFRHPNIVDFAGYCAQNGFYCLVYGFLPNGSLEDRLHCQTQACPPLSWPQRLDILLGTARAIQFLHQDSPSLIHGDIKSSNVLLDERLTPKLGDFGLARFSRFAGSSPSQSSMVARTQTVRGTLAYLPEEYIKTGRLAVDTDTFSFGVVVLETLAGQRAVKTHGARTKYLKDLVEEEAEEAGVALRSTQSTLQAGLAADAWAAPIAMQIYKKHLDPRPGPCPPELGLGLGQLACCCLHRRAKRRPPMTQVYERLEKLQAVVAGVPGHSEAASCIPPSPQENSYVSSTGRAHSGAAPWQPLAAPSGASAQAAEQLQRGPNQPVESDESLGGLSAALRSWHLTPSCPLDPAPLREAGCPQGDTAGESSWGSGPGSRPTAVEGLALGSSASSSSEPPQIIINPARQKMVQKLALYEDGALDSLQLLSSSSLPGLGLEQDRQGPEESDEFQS

Molecule: COc1c(OCCCN2CCOCC2)ccc2c1N=C(NC(=O)c1cnc(N)nc1)N1CCN=C21 [Copanlisib]
- Sum Excess HSA (MOLM14 (D835Y) cells): −542.8

Molecule: CC(=O)c1c(C)c2cnc(Nc3ccc(N4CCNCC4)cn3)nc2n(C2CCCC2)c1=O [Palbociclib, reference compound]
- Sum Excess HSA (MOLM14 (D835Y) cells): 999.2

Molecule: C[C@]12C=CC(=O)C=C1CC[C@@H]1[C@@H]2[C@@H](O)C[C@@]2(C)[C@H]1CC[C@]2(O)C(=O)CO [Prednisolone, prednisolone, reference compound]
- Sum Excess HSA (MOLM14 (D835Y) cells): −46.1

Molecule: CC1(C)CCC(C)(C)c2cc(NC(=O)c3ccc(C(=O)O)cc3)ccc21 [Tamibarotene]
- Sum Excess HSA (MOLM14 (D835Y) cells): 850.4

Molecule: CN1C(=O)[C@@H](NC(=O)c2n[nH]c(Cc3ccccc3)n2)COc2ccccc21 [GSK-2982772]
- Interaction with Compound 96 (MOLM14 (D835Y) cells): Synergestic
- Sum Excess HSA (MOLM14 (D835Y) cells): −577

Molecule: CCN(c1cc(-c2ccc(CN3CCOCC3)cc2)cc(C(=O)NCc2c(C)cc(C)[nH]c2=O)c1C)C1CCOCC1 [Tazemetostat, tazemetostat, reference compound]
- Sum Excess HSA (MOLM14 (D835Y) cells): 74.36

Molecule: CC1(C)CCC(c2ccc(Cl)cc2)=C(CN2CCN(c3ccc(C(=O)NS(=O)(=O)c4ccc(N[C@H](CCN5CCOCC5)CSc5ccccc5)c(S(=O)(=O)C(F)(F)F)c4)cc3)CC2)C1 [Navitoclax (ABT-263), Navitoclax, reference compound]
- Sum Excess HSA (MOLM14 (D835Y) cells): −227.3

Molecule: Cc1c(-c2c(-c3ccc(F)o3)sc3ncnc(O[C@H](Cc4ccccc4OCc4ccnn4CC(F)(F)F)C(=O)O)c23)ccc(OCCN2CCN(C)CC2)c1Cl [Compound S63845]
- Sum Excess HSA (MOLM14 (D835Y) cells): 297.3

Molecule: COc1cc(C(=O)O)ccc1NC(=O)[C@@H]1N[C@@H](CC(C)(C)C)[C@](C#N)(c2ccc(Cl)cc2F)[C@H]1c1cccc(Cl)c1F [Idasanutlin]
- Sum Excess HSA (MOLM14 (D835Y) cells): 192.3

Molecule: Gilteritinib hemifumarate [reference compound]
- concentration required to reach a similar level of potentiation as Compound 106 (MOLM14 (D835Y) cells): substantially higher concentrations

Molecule: CC(C)[C@@H](CS(=O)(=O)C(C)C)N1C(=O)[C@@](C)(CC(=O)O)C[C@H](c2cccc(Cl)c2)[C@H]1c1ccc(Cl)cc1 [AMG-232]
- Sum Excess HSA (MOLM14 (D835Y) cells): −222.9

Molecule: COc1cccc2nc(-c3cccs3)nc(NN3C(=O)C=C(C)C3=O)c12 [SPC-839]
- Sum Excess HSA (MOLM14 (D835Y) cells): −326.8

Molecule: Nc1ccn([C@@H]2O[C@H](CO)[C@@H](O)C2(F)F)c(=O)n1 [Gemcitabine, reference compound]
- Sum Excess HSA (MOLM14 (D835Y) cells): 30.69

Molecule: CCOC(=O)c1ccc(C#Cc2ccc3c(c2)C(C)(C)CCS3)nc1 [Tazarotene]
- Sum Excess HSA (MOLM14 (D835Y) cells): −189

Molecule: CC1(C)CC[C@]2(NC(=O)C(C)(F)F)CC[C@]3(C)[C@H](C(=O)C=C4[C@@]5(C)C=C(C#N)C(=O)C(C)(C)[C@@H]5CC[C@]43C)[C@@H]2C1 [Omaveloxolone]
- Sum Excess HSA (MOLM14 (D835Y) cells): 196

Molecule: CN1C(=O)N[C@H](Cc2c[nH]c3c(Cl)cccc23)C1=O [Necrostatin 2]
- Sum Excess HSA (MOLM14 (D835Y) cells): 288.7

Molecule: O=C1CC[C@H](N2Cc3c(OCc4ccc(CN5CCOCC5)cc4)cccc3C2=O)C(=O)N1 [Iberdomide]
- Interaction with Compound 96 (MOLM14 (D835Y) cells): Antagonistic

Molecule: Cc1cnc(-c2ccc(-c3ccc(NC(=O)Nc4c(F)cc(F)cc4F)cc3F)c3c2C(=O)NC3)[nH]1 [CG-806, reference compound]
- concentration required to reach a similar level of potentiation as Compound 106 (MOLM14 (D835Y) cells): substantially higher concentrations
- Interaction with Venetoclax (MOLM14 (D835Y) cells): synergize

Molecule: C[C@@H]1C[C@H]2[C@@H]3CCC4=CC(=O)C=C[C@]4(C)[C@@]3(F)[C@@H](O)C[C@]2(C)[C@@]1(O)C(=O)CO [Dexamethasone, dexamethasone, reference compound]
- Sum Excess HSA (MOLM14 (D835Y) cells): −69.67

Molecule: Gilteritinib hemifumerate [reference compound]
- Interaction with Venetoclax (MOLM14 (D835Y) cells): synergize

Molecule: Cc1cc(-c2nc(C(=O)Nc3cc4oc(N5CCOCC5)nc4nc3N3CC[C@@H](O)C3)co2)ccn1 [CA-4948, reference compound]
- concentration required to reach a similar level of potentiation as Compound 106 (MOLM14 (D835Y) cells): substantially higher concentrations
- Interaction with Venetoclax (MOLM14 (D835Y) cells): synergize

- IC50 (IRAK1): 2.65 µM
- IC50 (FLT3): 0.0008 µM
- IC50 (IRAK4): 0.036 µM
Molecule: FC(F)(F)[C@H]1CNC[C@@H]1Nc1cccc(-c2cnc3ccc(C4CC4)nn23)n1 [Compound 71, 6-(6-cyclopropylimidazo[1,2-b]pyridazin-3-yl)-N-((3R,4S)-4-(trifluoromethyl)pyrrolidin-3-yl)pyridin-2-amine]

- IC50 (IRAK1): 0.704 µM
- IC50 (FLT3): 0.008 µM
- IC50 (IRAK4): 0.586 µM
Molecule: CC(C)(O)Cn1cc(-c2ccc3ncc(-c4cccc(N[C@H]5CCNC[C@@H]5F)n4)n3n2)cn1 [Compound 8, 1-(4-(3-(6-(((3S,4S)-3-fluoropiperidin-4-yl)amino)pyridin-2-yl)imidazo[1,2-b]pyridazin-6-yl)-1 H-pyrazol-1-yl)-2-methylpropan-2-ol]

- IC50 (IRAK1): 1.15 µM
- IC50 (FLT3): 0.016 µM
- IC50 (IRAK4): 0.075 µM
Molecule: FC(F)n1cc(-c2ccc3ncc(-c4cccc(NC5CNCC5(F)F)n4)n3n2)cn1 (stereo not shown) [Compound 23, 6-(6-(1-(difluoromethyl)-1H-pyrazol-4-yl)imidazo[1,2-b]pyridazin-3-yl)-N-(4,4-difluoropyrrolidin-3-yl)pyridin-2-amine]

Molecule: C[C@H]1C[C@@H]2[C@H]([C@@H](O)C[C@@]3(C)[C@H]2CC[C@]3(O)C(=O)CO)[C@@]2(C)C=CC(=O)C=C12 [Methylprednisolone, methylprednisolone, reference compound]
- Sum Excess HSA (MOLM14 (D835Y) cells): 891

- IC50 (IRAK1): 0.114 µM
- IC50 (FLT3): 0.0009 µM
- IC50 (IRAK4): 0.02 µM
Molecule: c1cc(NC2CCNC2)nc(-c2cnc3ccc(-c4cn[nH]c4)nn23)c1 (stereo not shown) [Compound 26, 6-(6-(1H-pyrazol-4-yl)imidazo[1,2-b]pyridazin-3-yl)-N-(pyrrolidin-3-yl)pyridin-2-amine]

- IC50 (IRAK1): > 10 µM
- IC50 (FLT3): 0.004 µM
- IC50 (IRAK4): 4.34 µM
Molecule: c1cc(NC2CC3(CCNC3)C2)nc(-c2cnc3ccc(-c4cnn(C5CNC5)c4)nn23)c1 (stereo not shown) [Compound 44, N-(6-(6-(1-(azetidin-3-yl)-1H-pyrazol-4-yl)imidazo[1,2-b]pyridazin-3-yl)pyridin-2-yl)-6-azaspiro[3.4]octan-2-amine]

- IC50 (IRAK1): 1.85 µM
- IC50 (FLT3): 0.003 µM
- IC50 (IRAK4): 0.1 µM
Molecule: CC(C)(O)Cn1cc(-c2ccc3ncc(-c4cccc(N[C@H]5CNC[C@@H]5C(F)(F)F)n4)n3n2)cn1 [Compound 14, 2-methyl-1-(4-(3-(6-(((3R,4S)-4-(trifluoromethyl)pyrrolidin-3-yl)amino)pyridin-2-yl)imidazo[1,2-b]pyridazin-6-yl)-1 H-pyrazol-1-yl)propan-2-ol]

Molecule: CC(C)(C)c1cc(NC(=O)Nc2ccc(-c3cn4c(n3)sc3cc(OCCN5CCOCC5)ccc34)cc2)no1 [Quizartinib, reference compound]
- concentration required to reach a similar level of potentiation as Compound 106 (MOLM14 (D835Y) cells): substantially higher concentrations
- Interaction with Venetoclax (MOLM14 (D835Y) cells): synergize

- IC50 (IRAK1): 1.18 µM
- IC50 (FLT3): 0.004 µM
- IC50 (IRAK4): 0.024 µM
Molecule: F[C@H]1CNC[C@@H]1Nc1cccc(-c2cnc3ccc(N4CCOCC4)nn23)n1 [Compound 95, N-((3S,4S)-4-fluoropyrrolidin-3-yl)-6-(6-morpholinoimidazo[1,2-b]pyridazin-3-yl)pyridin-2-amine]

Molecule: CC1(C)CCC(CN2CCN(c3ccc(C(=O)NS(=O)(=O)c4ccc(NCC5CCOCC5)c([N+](=O)[O-])c4)c(Oc4cnc5[nH]ccc5c4)c3)CC2)=C(c2ccc(Cl)cc2)C1 [Venetoclax (ABT-199), venetoclax, reference compound]
- Sum Excess HSA (MOLM14 (D835Y) cells): −549.6211

- IC50 (IRAK1): 3.41 µM
- IC50 (FLT3): 0.009 µM
- IC50 (IRAK4): 0.63 µM
Molecule: CC(C)n1cc(-c2ccc3ncc(-c4cccc(NC5CC6(CNC6)C5)n4)n3n2)cn1 [Compound 32, N-(6-(6-(1-isopropyl-1H-pyrazol-4-yl)imidazo[1,2-b]pyridazin-3-yl)pyridin-2-yl)-2-azaspiro[3.3]heptan-6-amine]
